Calls of active or inactive are those of the source. The rule behind the calls is not given here. Some results are limits rather than exact numbers.

The term IC50 denotes the point on the concentration scale where inhibition reaches its midpoint. By inhibition is commonly meant the percentage by which the read-out fell short of the control. Broadly, the Ki is the equilibrium dissociation constant of an inhibitor or competing ligand from its target.

Test [1] has as its system HCT-116. Briefly: cells. The conditions noted are these: Homo sapiens, HCT-116, 72 h.
Test [2] concerns SW480. Description: cells. The conditions noted are these: Homo sapiens, SW480, 72 h.
For test [3], the system named is HT-29. Briefly: cells. Conditions: Homo sapiens, HT-29, 72 h.
A short description of test [4]: Inhibition of beta-catenin/Tcf4 interaction in human SW480 cells assessed as decrease in transactivation of canonical Wnt signaling by TOPflash luciferase reporter assay. (A reporter such as luciferase makes a cellular process visible.)
Test [5] concerns SW480. Briefly: Cytotoxicity against human SW480 cells assessed as inhibition of cell growth after 72 hrs by MTS assay. For orientation: Tetrazolium assays rely on reduction of a dye to a coloured formazan, in cell work by metabolically active cells.
Test [6] concerns HEK293. Briefly: Inhibition of interaction of beta-catenin (unknown origin) transfected in Wnt-activated HEK293 cells/Tcf4 assessed as decrease in transactivation of canonical Wnt signaling by TOPflash luciferase reporter assay. The conditions noted are these: Homo sapiens.
Test [7] deals with HCT-116. Briefly: Cytotoxicity against human HCT116 cells assessed as inhibition of cell growth after 72 hrs by MTS assay.
In test [8] the test system is beta-catenin R469A mutant/Tcf4 (human). Description: Inhibition of human beta-catenin R469A mutant interaction with Tcf4 by fluorescence polarization competitive inhibition assay. (In general: Fluorescence polarisation rises when a labelled molecule tumbles more slowly, as on binding a larger partner.)
Test [9] in a line: Inhibition of interaction of beta-catenin (unknown origin) transfected in Wnt-activated HEK293 cells/Tcf4 assessed as decrease in transactivation of canonical Wnt signaling by TOPflash luciferase reporter assay. Conditions: Homo sapiens.
For test [10], the target named is T1, Catenin beta-1 (Homo sapiens, UniProt P35222).
T1 sequence (P35222 whole entry): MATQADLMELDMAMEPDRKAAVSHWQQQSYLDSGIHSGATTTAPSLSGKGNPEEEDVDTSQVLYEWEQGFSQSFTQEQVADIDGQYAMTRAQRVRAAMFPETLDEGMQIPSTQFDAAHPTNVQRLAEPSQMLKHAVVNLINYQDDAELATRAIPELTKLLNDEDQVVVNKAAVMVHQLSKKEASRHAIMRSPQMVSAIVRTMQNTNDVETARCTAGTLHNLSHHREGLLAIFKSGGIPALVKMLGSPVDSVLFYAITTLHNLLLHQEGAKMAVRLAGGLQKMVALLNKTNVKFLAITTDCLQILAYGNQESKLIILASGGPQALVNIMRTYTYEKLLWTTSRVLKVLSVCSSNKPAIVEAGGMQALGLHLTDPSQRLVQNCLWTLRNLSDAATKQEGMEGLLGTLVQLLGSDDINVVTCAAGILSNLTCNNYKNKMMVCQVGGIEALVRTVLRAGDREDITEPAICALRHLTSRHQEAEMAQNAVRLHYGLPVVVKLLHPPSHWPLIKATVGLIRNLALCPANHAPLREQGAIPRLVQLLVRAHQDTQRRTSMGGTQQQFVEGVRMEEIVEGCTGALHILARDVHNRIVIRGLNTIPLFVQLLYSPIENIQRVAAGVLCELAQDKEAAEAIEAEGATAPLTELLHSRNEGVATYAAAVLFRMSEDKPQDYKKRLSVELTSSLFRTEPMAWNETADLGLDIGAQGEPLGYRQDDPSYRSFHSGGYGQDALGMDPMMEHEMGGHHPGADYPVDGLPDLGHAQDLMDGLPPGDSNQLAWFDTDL
Briefly: Inhibition of human wild-type beta-catenin (residues 138-686)/C-terminally fluorescein labeled human wild-type Tcf4 (residues 7-51) interaction after […] by FP competitive inhibition assay.

Test [11] concerns the target T1, Catenin beta-1. Description: Inhibition of human wild-type beta-catenin (residues 138-686)/C-terminally fluorescein-labeled human APC-R3 (residues 1477-1519) interaction by FP competitive inhibition assay.
Test [12] has as its target T1, Catenin beta-1. Briefly: Inhibition of human wild-type beta-catenin (residues 138-686)/C-terminally fluorescein-labeled human E-cadherin (residues 819-873) interaction by FP competitive inhibition assay.
The test system of test [13] is SW480. Description: Decrease in c-myc mRNA expression in human SW480 cells at 2 uM after 24 hrs by quantitative real-time PCR analysis. In kind it is functional. The conditions noted are these: SW480, 24 h.
The subject of test [14] is SW480. Description: Effect on HPRT mRNA expression in human SW480 cells after 24 hrs by quantitative real-time PCR analysis. In kind it is functional, cell-based.
In test [15] the test system is SW480. Description: Effect on beta-catenin degradation in human SW480 cells assessed as beta-catenin protein expression after 24 hrs by western blot analysis. Format: functional, cell-based.
Test [16] has as its system SW480. Description: Decrease in AXIN2 mRNA expression in human SW480 cells at 2 uM after 24 hrs by quantitative real-time PCR analysis. Conditions: SW480, 24 h. In kind it is functional.
Test [17] relates to SW480. Description: Decrease in cyclin D1 mRNA expression in human SW480 cells at 2 uM after 24 hrs by quantitative real-time PCR analysis. In kind it is functional. Conditions: SW480, 24 h.

With `COc1ccc(/C=C2/SC(=S)N(CCCC(=O)O)C2=O)cc1OC`, the IC50 in test [1] amounted to 180 µM; in [2], 240 µM; in test [3], 290 µM; in [4] it was 4 µM.

On to `CCOC(=O)CCCn1c2ccccc2c2nc3nonc3nc21`, for which the inhibition result in test [5], in test [6] and in [7] was “inactive” throughout.

Turning to `Nc1nonc1NC(=O)Cn1c2ccccc2c2nc3nonc3nc21`, the inhibition result in test [5], in [6] and in test [7] was “inactive” throughout. Further, in test [8], the affinity, expressed as Ki, was 42 µM.

For the molecule `O=C(O)c1ccc2nc(-c3ccc(Cl)cc3)c(-c3ccc(Cl)cc3)nc2c1`, the IC50 in test [1] is 22 µM; in test [2] it was 38 µM; in test [3], 41 µM; in test [9], > 100 µM.

Regarding `COc1c(C[C@H](C)O)c2c3c(C[C@H](C)O)c(OC)c(=O)c4c(O)cc5c(c6c(cc(O)c(c1=O)c62)OCO5)c43`, the IC50 in [1] was 1.2 µM; in test [2] it was 5.5 µM; in test [3], 1.8 µM.

On to `COC(=O)CCn1c2ccccc2c2nc3nonc3nc21`, for which the inhibition result in test [5], in [6] and in [7] was “inactive” throughout.

Turning to `N#CCCn1c2ccccc2c2nc3nonc3nc21`, the IC50 in test [1] amounted to 0.02 µM; in [2], 52 µM.

For `COc1c(C[C@@H](C)OC(=O)Oc2ccc(O)cc2)c2c3c(C[C@@H](C)OC(=O)c4ccccc4)c(OC)c(=O)c4c(O)cc(OC)c(c5c(OC)cc(O)c(c1=O)c52)c43` [CALPHOSTIN C], the IC50 in test [10] was determined as 77 µM; in test [11] it was 110 µM; in [12] it was 38 µM.

As for `O=C(O)c1cc2nc(-c3ccc4c(c3)OCO4)c(-c3ccc4c(c3)OCO4)nc2cc1O`, the IC50 in test [9] was > 100 µM.

Take `O=C(O)CCCn1c2ccccc2c2nc3nonc3nc21`: the inhibition result in test [5], in test [6] and in [7] was “inactive” each time.

Consider `Nc1nonc1C(=O)N/N=C1/c2ccccc2-c2nc3nonc3nc21`, for which the inhibition at 2 µM in test [13], in test [16] and in test [17] was > 50% throughout. Further, the result in [14] and in [15] was inactive.

Consider `O=C(O)c1cc(-c2ccc(Oc3ccc(Cl)cc3)cc2)on1`, for which the IC50 in test [9] was determined as 39 µM.

Take `c1ccc2c(c1)c1nc3nonc3nc1n2CCc1nn[nH]n1`: the IC50 in test [1] was 31 µM; in [2], > 200 µM; in test [9] it was 26 µM. In addition, the outcome in test [14] was inactive.
